How the values were obtained:
[1] = target: T1, trehalose-releasing enzyme (Rhizobium sp. M-11, UniProt Q53238); type: biochemical, Rhizobium species M-11; details: for Composition: trehalose formed / Composition: reducing saccharide formed: 20% substrate, 2 units/g, 40° C., pH7.0, 48 hours; for Composition: reducing saccharide formed: glucose, maltose, maltotriose, maltotetraose or maltopentaose respectively; for Composition: residual substrate: trehalose-releasing enzyme, 48 h, pH 7
T1 construct: M-11, about 58-68 kDa
T1 sequence (Q53238 1-596): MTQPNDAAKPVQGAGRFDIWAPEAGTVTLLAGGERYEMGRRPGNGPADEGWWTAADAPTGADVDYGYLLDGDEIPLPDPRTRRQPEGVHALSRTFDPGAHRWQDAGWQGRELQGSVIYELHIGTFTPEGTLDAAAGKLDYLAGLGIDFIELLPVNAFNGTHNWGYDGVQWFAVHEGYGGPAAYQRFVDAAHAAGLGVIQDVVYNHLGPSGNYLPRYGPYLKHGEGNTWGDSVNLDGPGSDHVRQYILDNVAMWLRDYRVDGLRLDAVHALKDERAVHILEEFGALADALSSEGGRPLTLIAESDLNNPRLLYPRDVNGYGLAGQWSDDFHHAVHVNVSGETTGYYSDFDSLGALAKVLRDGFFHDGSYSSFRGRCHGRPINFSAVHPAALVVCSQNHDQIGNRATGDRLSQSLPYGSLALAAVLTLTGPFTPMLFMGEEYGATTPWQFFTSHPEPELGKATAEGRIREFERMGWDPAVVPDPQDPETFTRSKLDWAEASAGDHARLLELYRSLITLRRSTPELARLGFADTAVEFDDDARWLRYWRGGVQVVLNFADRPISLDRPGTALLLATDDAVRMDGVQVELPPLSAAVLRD
Description: Alpha-glycosyl trehaloses as substrates were prepared in accordance with the method described in Japanese Patent Application No. 349,216/93. More particularly, 20% aqueous solutions of maltotriose, maltotetraose, maltopentaose, maltohexaose or maltoheptaose as reducing partial starch hydrolysate were added with 2 units/g substrate solid of a purified non-reducing saccharide-forming enzyme obtained by the method in […], reacted at 40° C. and pH7.0 for 48 hours, heated for inactivation, filtered, deionized, concentrated in conventional manner and applied to ion exchange column chromatography on a strongly-acidic cation exchange "XT-1016" in sodium form. The ion exchange resin was packed in 3 jacketed-stainless steel columns, inner diameter of 2.0 cm, length of 1 m, and the columns were cascaded, loaded with 5 v/v % reaction saccharide liquid against the resin and injected with 55° C. water at SV0.13 for fractionation while keeping the temperature inside the columns at 55° C., thus obtaining high-purity preparations of non-reducing saccharides with glucose polymerization degrees of 3 or higher.
20% Aqueous solutions of these five types of non-reducing saccharides or alpha-glycosyl trehaloses were prepared, added with 2 units/g substrate solid of the purified trehalose-releasing enzyme obtained in Experiment 15, reacted at 40° C. and pH7.0 for 48 hours, deionized and subjected to high-performance liquid chromatography on "WAKO BEADS WB-T-330" for analysis of reaction products. As control, maltotriose, maltotetraose, maltopentaose, maltohexaose and maltoheptaose were subjected to the purified trehalose-releasing enzyme similarly as above and then analyzed on high-performance liquid chromatography.

rice alpha-glucosidase = test: Degradation by rice alpha-glucosidase; type: biochemical; details: for Glucose in degradation product by alpha-glucosidase / Others in degradation product by alpha-glucosidase / Trehalose in degradation product by alpha-glucosidase: pH4.0, 37° C., 18 hours
Description: The non-reducing saccharide preparations PI, PII, PIII, PIV and PV as substrates prepared in Experiment 4 were subjected to pig pancreas alpha-amylase, rice alpha-glucosidase and acetone-pulverized rat small intestine enzyme, all of which were products of Sigma Chemical Co., St Louis, Mo., USA, and the degradation products were analyzed on high-performance liquid chromatography for saccharide composition. The reaction by alpha-amylase was carried out by dissolving 10 mg of either substrate in 1 ml of 50 mM phosphate buffer (pH6.9), adding thereto one unit of alpha-amylase and incubating at 37° C. for 18 hours. The reaction by alpha-glucosidase was conducted similarly as in the case of alpha-amylase except that 50 mM acetate buffer (pH4.0) was used. In the case of acetone-pulverized rat small intestine enzyme, the reaction was conducted similarly as in the case of alpha-amylase except that 50 mM maleic acid buffer (pH6.0) was used.

In the case of `OC[C@H]1O[C@H](O[C@H]2O[C@H](CO)[C@@H](O[C@H]3O[C@H](CO)[C@@H](O)[C@H](O)[C@H]3O)[C@H](O)[C@H]2O)[C@H](O)[C@@H](O)[C@@H]1O` [PI, alpha-glucosyl trehalose], the “Composition: trehalose formed” value [1] was 17.5%, the “Composition: reducing saccharide formed” value [1] was 6.5% and the “Composition: residual substrate” value [1] was 76.0%. For the same molecule, the “Degradation by alpha-glucosidase (in words)” value (“Degradation … (in words)” below) (rice alpha-glucosidase) was “degradable”, the “Glucose in degradation product by alpha-glucosidase” value (from here on “Glucose in degradation product”) (rice alpha-glucosidase) was 36.5% and the “Others in degradation product by alpha-glucosidase” value (“Others in degradation product” for short) (rice alpha-glucosidase) was 0.5%. The “Trehalose in degradation product by alpha-glucosidase” value (“Trehalose in degradation product” below) (rice alpha-glucosidase) was 63.0%.

`OC[C@H]1O[C@H](O[C@H]2O[C@H](CO)[C@@H](O[C@H]3O[C@H](CO)[C@@H](O[C@H]4O[C@H](CO)[C@@H](O[C@H]5O[C@H](CO)[C@@H](O[C@H]6O[C@H](CO)[C@@H](O[C@H]7O[C@H](CO)[C@@H](O)[C@H](O)[C@H]7O)[C@H](O)[C@H]6O)[C@H](O)[C@H]5O)[C@H](O)[C@H]4O)[C@H](O)[C@H]3O)[C@H](O)[C@H]2O)[C@H](O)[C@@H](O)[C@@H]1O` [PV, alpha-maltopentaosyl trehalose] was tested, and the “Composition: trehalose formed” value [1] was 29.1%, the “Composition: reducing saccharide formed” value [1] was 70.6% and the “Composition: residual substrate” value [1] was 0.3%. The “Degradation … (in words)” value (rice alpha-glucosidase) was “degradable”, the “Glucose in degradation product” value (rice alpha-glucosidase) was 71.4% and the “Others in degradation product” value (rice alpha-glucosidase) was 0.3%. For the same molecule, the “Trehalose in degradation product” value (rice alpha-glucosidase) was 28.3%.

In the case of `OC[C@H]1O[C@H](O[C@H]2O[C@H](CO)[C@@H](O[C@H]3O[C@H](CO)[C@@H](O[C@H]4O[C@H](CO)[C@@H](O[C@H]5O[C@H](CO)[C@@H](O[C@H]6O[C@H](CO)[C@@H](O)[C@H](O)[C@H]6O)[C@H](O)[C@H]5O)[C@H](O)[C@H]4O)[C@H](O)[C@H]3O)[C@H](O)[C@H]2O)[C@H](O)[C@@H](O)[C@@H]1O` [PIV, alpha-maltotetraosyl trehalose], the “Composition: trehalose formed” value [1] was 34.2%, the “Composition: reducing saccharide formed” value [1] was 65.5% and the “Composition: residual substrate” value [1] was 0.3%. For the same molecule, the “Degradation … (in words)” value (rice alpha-glucosidase) was “degradable”, the “Glucose in degradation product” value (rice alpha-glucosidase) was 69.5% and the “Others in degradation product” value (rice alpha-glucosidase) was 0.3%. The “Trehalose in degradation product” value (rice alpha-glucosidase) was 30.2%.

In the case of `OC[C@H]1O[C@H](O[C@H]2O[C@H](CO)[C@@H](O[C@H]3O[C@H](CO)[C@@H](O[C@H]4O[C@H](CO)[C@@H](O)[C@H](O)[C@H]4O)[C@H](O)[C@H]3O)[C@H](O)[C@H]2O)[C@H](O)[C@@H](O)[C@@H]1O` [PII, alpha-maltosyl trehalose], the “Composition: trehalose formed” value [1] was 44.3%, the “Composition: reducing saccharide formed” value [1] was 44.4% and the “Composition: residual substrate” value [1] was 11.3%. The “Degradation … (in words)” value (rice alpha-glucosidase) was “degradable”, the “Glucose in degradation product” value (rice alpha-glucosidase) was 52.1% and the “Others in degradation product” value (rice alpha-glucosidase) was 0.3%. For the same molecule, the “Trehalose in degradation product” value (rice alpha-glucosidase) was 47.6%.

`OC[C@H]1O[C@H](O[C@H]2O[C@H](CO)[C@@H](O[C@H]3O[C@H](CO)[C@@H](O[C@H]4O[C@H](CO)[C@@H](O[C@H]5O[C@H](CO)[C@@H](O)[C@H](O)[C@H]5O)[C@H](O)[C@H]4O)[C@H](O)[C@H]3O)[C@H](O)[C@H]2O)[C@H](O)[C@@H](O)[C@@H]1O` [PIII, alpha-maltotriosyl trehalose] was tested, and the “Composition: trehalose formed” value [1] was 39.5%, the “Composition: reducing saccharide formed” value [1] was 60.0% and the “Composition: residual substrate” value [1] was 0.5%. For the same molecule, the “Degradation … (in words)” value (rice alpha-glucosidase) was “degradable”, the “Glucose in degradation product” value (rice alpha-glucosidase) was 61.7% and the “Others in degradation product” value (rice alpha-glucosidase) was 0.2%. The “Trehalose in degradation product” value (rice alpha-glucosidase) was 38.1%.

From US5919668A, “Non-reducing saccharide and its production and use” (Kabushiki Kaisha Hayashibara Seibutsu Kagaku Kenkyujo, priority 1994, dated 1999)
